The source of these data is patent publication US20080009437A1, “Pharmaceutical Compositions and Method for Treating Dry Eye” (priority 2006, published 2008).

The structures appear in SMILES notation. Values joined by “and” are separate entries in the source; they are usually repeats but may differ in a detail not shown here. Equal values may be shown once. “Also recorded” adds a separate entry of the source.

Assay [1] has as its system PGE2 in the aqueous humor. Kind of assay: Prostaglandin E2 (PGE2) measurement in aqueous humor. Conditions: individual eye sample, second paracentesis. Format: in vivo, Rabbit.
Assay [2] has as its system leukocytes (PMN) in aqueous humor. Kind of assay: Leukocytes (PMN) measurement in aqueous humor. Format: in vivo, Rabbit. Conditions: second paracentesis; for PMN (number/μl) in aqueous humor, raw data: individual eye sample; for PMN in aqueous humor, Mean (number/μl): group mean. On the procedure: (§1) Each rabbit was placed in a restraint device and tagged with the alphanumeric code. The formulations were instilled (50 μl) into the conjunctival sac of both eyes 180, 120, 90 and 30 min before the first paracentesis; then 15, 30, 90 min after the first paracentesis. To perform the first paracentesis the animals were anaesthetized by intraveneous injection of 5 mg/kg Zoletil® (Virbac; 2.5 mg/kg tiletamine HCl and 2.5 mg/kg zolazepam HCl) and one drop of local anesthetic (Novesina®, Novartis) was administered to the eye. Anterior chamber paracentesis was performed with a 26 G needle attached to a tuberculin syringe; the needle was introduced into the anterior chamber through the cornea, taking care not to damage the tissues. Two hours after the first paracentesis, the animals were sacrificed with 0.4 ml Tanax® (Intervet International B. V.) and the second paracentesis was performed. About 100 μl of aqueous humor were removed at the second paracentesis. Aqueous humor was immediately split in four aliquots and stored at −80° C. until analysis. Then both eyes were enucleated and the iris-ciliary body was carefully excised, placed in polypropylene tubes, and stored at −80° C. until analysis.
For the determination of the number of leukocytes we used a haemocytometer (Improved Neubauer Chamber; Brigth-line, Hausser Scientific) and a Polyvar 2 microscope (Reichert-Jung).
(§2) Pupillary diameter, PGE2, protein, PMN, and MPO were expressed as mean±SEM. Statistical analysis was performed using one way ANOVA followed by a Newman-Keuls post hoc test. Clinical score was expressed as % of eyes and the statistical analysis was performed using Kruskal-Wallis followed by a Dunn post hoc test. P<0.05 was considered statistically significant in both cases. Prism 4 software (GraphPad Software, Inc.) was used for the analysis and graphs.

Assay [3] concerns rabbit eye (anterior chamber paracentesis). As to the kind of experiment: Pupillary diameter measurement, rabbit paracentesis model. Format: in vivo. Conditions: group mean, n=8 eyes. On the procedure:
as §1
The pupillary diameter of both eyes was measured with a Castroviejo caliper 180 min and 5 min before the first paracentesis and 5 min before the second paracentesis.
as §2

Assay [4] has as its system rabbit paracentesis model. As to the kind of experiment: Rabbit paracentesis model, overall anti-inflammatory activity. The note with it: 0.1%, 0.5% and 1% topical formulations; preliminary conclusions; listed as BOL-303242-X. Format: in vivo. The text has this:
Inflammatory processes are multidimensional in origin, and are characterized by complex cellular and molecular events involving numerous components all of which have not been identified. Prostaglandins are among these mediators and play an important role in certain forms of ocular inflammation. Paracentesis of the anterior chamber in the rabbit eye induces inflammatory reaction due to the disruption of the blood-aqueous barrier (“BAB”), which is mediated, at least in part, by prostaglandin E2 [References 1-3 below]. Intraocular or topical administration of PGE2 disrupts the BAB. [Reference 4, below] The treatment schedule adopted in this study was similar to the clinical NSAIDs (Ocufen) treatment schedule used by surgeons for patients before cataract surgery.
Each rabbit was placed in a restraint device and tagged with the alphanumeric code. The formulations were instilled (50 μl) into the conjunctival sac of both eyes 180, 120, 90 and 30 min before the first paracentesis; then 15, 30, 90 min after the first paracentesis. To perform the first paracentesis the animals were anaesthetized by intraveneous injection of 5 mg/kg Zoletil® (Virbac; 2.5 mg/kg tiletamine HCl and 2.5 mg/kg zolazepam HCl) and one drop of local anesthetic (Novesina®, Novartis) was administered to the eye. […]

Consider `Cc1ccc2c(NCC(O)(CC(C)(C)c3cc(F)cc4c3OCC4)C(F)(F)F)cccc2n1` (stereo not drawn) [BOL], for which the “PGE2 (ng/ml) in aqueous humor, raw data” value in assay [1] (0.1% topical formulation) was 0.70 ng/mL; in assay [1] (0.5% topical formulation), 0.53 ng/mL and 0.75 ng/mL and 0.80 ng/mL; in assay [1] (1% topical formulation), 0.50 ng/mL. Besides, the “PMN (number/μl) in aqueous humor, raw data” value (“PMN (number/μl)” for short) in assay [2] (0.1% topical formulation) is 20 number/μl (4×) and 40 number/μl and 50 number/μl; in assay [2] (0.5% topical formulation), 40 number/μl (2×) and 20 number/μl (3×) and 10 number/μl (3×); in assay [2] (1% topical formulation), 30 number/μl (3×) and 20 number/μl (3×) and 40 number/μl (2×). Moreover, the “Mean (mm) Δ(T3-T1) pupillary diameter” value in assay [3] (0.1% topical formulation) was −1.1 mm; in assay [3] (0.5% topical formulation), −1.0 mm; in assay [3] (1% topical formulation), −0.9 mm. Also, in assay [4], the “Anti-inflammatory activity in rabbit paracentesis model (conclusion)” value is listed as “active in this model; also recorded: as effective an anti-inflammatory drug as some of the commonly accepted prior-art steroids or NSAID”.
In the case of `C[C@@H]1C[C@H]2[C@@H]3CCC4=CC(=O)C=C[C@]4(C)[C@@]3(F)[C@@H](O)C[C@]2(C)[C@@]1(O)C(=O)CO` [Dex, dexamethasone], in assay [1] (0.1% topical formulation), the “PGE2 (ng/ml) in aqueous humor, raw data” value is 2.10 ng/mL and 1.30 ng/mL. Also, in assay [2] (0.1% topical formulation), the “PMN in aqueous humor, Mean (number/μl)” value is on record as 30.000 number/μl; the “PMN (number/μl)” value was 20 number/μl (3×) and 50 number/μl and 40 number/μl and 30 number/μl. In addition, in assay [3] (0.1% topical formulation), the “Mean (mm) Δ(T3-T1) pupillary diameter” value was −0.8 mm.
For `CC(C(=O)O)c1ccc(-c2ccccc2)c(F)c1` (stereo not drawn) [F, flurbiprofen], the “PGE2 (ng/ml) in aqueous humor, raw data” value in assay [1] (0.03% topical formulation) is 0.75 ng/mL and 0.85 ng/mL and 0.93 ng/mL and 0.61 ng/mL. Moreover, in assay [2] (0.03% topical formulation), the “PMN in aqueous humor, Mean (number/μl)” value was 30.000 number/μl; the “PMN (number/μl)” value was 50 number/μl and 40 number/μl (2×) and 20 number/μl (2×) and 10 number/μl and 30 number/μl. In addition, in assay [3] (0.03% topical formulation), the “Mean (mm) Δ(T3-T1) pupillary diameter” value was −0.9 mm.
Turning to `CCOC(=O)O[C@]1(C(=O)OCCl)CC[C@H]2[C@@H]3CCC4=CC(=O)C=C[C@]4(C)[C@H]3[C@@H](O)C[C@@]21C` [LE, loteprednol etabonate], the “PGE2 (ng/ml) in aqueous humor, raw data” value in assay [1] (0.5% topical formulation) is “^2N/D^ and 0.23 ng/ml and 0.68 ng/ml and 1.10 ng/ml”. In addition, the “PMN (number/μl)” value in assay [2] (0.5% topical formulation) was 40 number/μl (2×) and 20 number/μl (3×) and 30 number/μl. The “Mean (mm) Δ(T3-T1) pupillary diameter” value in assay [3] (0.5% topical formulation) was −0.9 mm.
